This note sets out measurements from ChEMBL document CHEMBL1201862, “PubChem BioAssay data set” (2004).

The target in one assay is Albumin (Bos taurus, UniProt P02769). The assay can be described thus: Counterscreen for inhibitors of T-cell receptor (TCR)-CD3 interaction: Fluorescence-based biochemical high throughput dose response assay to identify inhibitors of T-cell receptor (TCR)-CD3 interaction using a TAMRA-labeled BSA probe. Type of assay: functional.
Assay [1] in a line: general mammalian cell viability loss – inhibitor set, cherry-pick, set 2, cytotoxicity control for miR-122 modulator project, dose response (AID 720697). Type of assay: functional, cell-based.
The target of assay [2] is T1, Methionyl-tRNA synthetase, putative (Trypanosoma brucei brucei, UniProt Q38C91). Type of assay: functional, Trypanosoma brucei brucei strain 927/4 GUTat10.1.
Assay [3] is described as follows: Counterscreen for inhibitors of Trypanosoma brucei methionyl tRNA synthetase (MetRS): Luminescence-based cell-based high throughput dose response assay to identify compounds that are cytotoxic to Jurkat human T lymphocyte cells. Type of assay: functional. For orientation: Counterscreens check selectivity or assay interference.
Assay [4] deals with T1, Methionyl-tRNA synthetase, putative. Type of assay: functional, Trypanosoma brucei brucei strain 927/4 GUTat10.1. This is another data set of the same source.
Assay [5] is described as follows: microbe, parasite or virus in culture. Type of assay: functional. Particulars: Mycobacterium tuberculosis.
The target of assay [6] is T2, Low molecular weight phosphotyrosine protein phosphatase (Homo sapiens, UniProt P24666). Type of assay: functional. Particulars: read-out: IC50_Mean.
For assay [7], the target named is T2, Low molecular weight phosphotyrosine protein phosphatase. Type of assay: functional. Particulars: read-out: IC50_Mean. The source holds these as a separate data set.
Assay [8] addresses Fructose-bisphosphate aldolase (Mycobacterium tuberculosis, UniProt P9WQA3). The assay can be described thus: Fluorescence-based biochemical high throughput dose response assay for inhibitors of the fructose-bisphosphate aldolase (FBA) of M. tuberculosis. Type of assay: functional.
A further assay deals with Major prion protein (Homo sapiens, UniProt P04156). Type of assay: functional, cell-based.
Assay [9] can be described thus: cells.
The target of assay [10] is T3, Probable nicotinate-nucleotide adenylyltransferase (Staphylococcus aureus (strain N315), UniProt P65502). Type of assay: functional, Staphylococcus aureus subsp. aureus N315.
Assay [11] deals with T3, Probable nicotinate-nucleotide adenylyltransferase. Type of assay: functional, Staphylococcus aureus subsp. aureus N315. Particulars: read-out: IC50_Mean.
Assay [12] is described as follows: Fluorescence-based cell-based high throughput dose response assay for inhibitors of the interaction of nucleotide-binding oligomerization domain containing 2 (NOD2) and the receptor-interacting serine-threonine kinase 2 (RIPK2). Type of assay: functional. Particulars: Homo sapiens.
For assay [13], the target named is T4, Rac GTPase-activating protein 1 (Homo sapiens, UniProt Q9H0H5).
T4 sequence (Q9H0H5 whole entry): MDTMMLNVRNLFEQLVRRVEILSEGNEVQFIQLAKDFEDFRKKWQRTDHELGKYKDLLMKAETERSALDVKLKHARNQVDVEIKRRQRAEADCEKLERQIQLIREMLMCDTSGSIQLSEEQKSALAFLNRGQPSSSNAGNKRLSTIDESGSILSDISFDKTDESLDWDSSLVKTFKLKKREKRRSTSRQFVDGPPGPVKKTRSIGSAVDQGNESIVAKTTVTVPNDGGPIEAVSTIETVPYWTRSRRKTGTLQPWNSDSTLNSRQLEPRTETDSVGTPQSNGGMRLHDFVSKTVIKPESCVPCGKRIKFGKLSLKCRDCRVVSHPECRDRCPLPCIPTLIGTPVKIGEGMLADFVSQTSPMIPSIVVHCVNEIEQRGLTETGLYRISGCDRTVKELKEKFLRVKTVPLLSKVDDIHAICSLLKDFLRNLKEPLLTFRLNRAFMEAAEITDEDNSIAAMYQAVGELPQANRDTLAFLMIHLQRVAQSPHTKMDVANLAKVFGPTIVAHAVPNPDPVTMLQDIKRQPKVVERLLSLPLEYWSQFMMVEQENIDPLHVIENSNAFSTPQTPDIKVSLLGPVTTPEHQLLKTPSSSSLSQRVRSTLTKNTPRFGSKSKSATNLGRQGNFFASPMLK
The assay can be described thus: blockers of MgcRacGAP-driven Rac1 GTP hydrolysis – biochemical, ADP Hunter fluorescence, primary and confirmatory, confirmation (AID 624330). Type of assay: functional.

In assay [14] the target is T5, Interleukin-8 (Homo sapiens, UniProt P10145). The assay can be described thus: Dose Response confirmation of uHTS small molecule hits for cystic fibrosis induced NFkb Inhibitors in a TNFa-induced IL8 counterscreen. Type of assay: functional. Particulars: read-out: IC50_Mean.
Assay [15] concerns the target T5, Interleukin-8. The assay can be described thus: Dose Response confirmation of uHTS small molecule hits for cystic fibrosis induced NFkb Inhibitors in a PAF-induced IL8 counterscreen. Type of assay: functional. Particulars: read-out: IC50_Mean.
A further assay concerns the target Galanin receptor type 3 (Homo sapiens, UniProt O60755). The assay can be described thus: Fluorescence-based cell-based primary high throughput dose response assay to identify antagonists of the Galanin Receptor 3 (GalR3). Type of assay: functional.
A short description of assay [16]: cells. Particulars: HEK-CNG. Type of assay: functional, cell-based.
In another assay the target is Nonstructural protein 1 (Influenza A virus, UniProt Q194T2). Type of assay: functional, Influenza A virus (A/California/07/2009(H1N1)).
A short description of assay [17]: bead-based luminescence quenchers, dual-tagged ARNT – biochemical, AlphaScreen, cherry-pick, artefact control for ARNT-TACC3 interaction inhibitor project, dose response (AID 651705).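 Further: AlphaScreen bead proximity signal that flags compounds interfering with the detection technology; potency reflects signal decrease which marks the compound as an assay artifact.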 Type of assay: functional.
Assay [18] can be described thus: mouse fibroblast viability loss – cell-based, cherry-pick samples, set 2, cytotoxicity control for T. cruzi growth inhibitor project, dose response (AID 651817). Type of assay: functional. Particulars: NIH3T3.
The nature of assay [19]: intracellular Trypanosoma cruzi inhibitors in host cells – cell-based, plate reader, cherry-pick samples, set 3, dose response (AID 651818).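 Further: compounds incubated with infected cells for about four days.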 Type of assay: functional.
The nature of assay [20]: inhibition of ARNT PAS-B/TACC3 complex formation – biochemical, AlphaScreen, cherry-picked samples, confirmation (AID 651703).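 Further: His-tagged ARNT PAS-B domain paired with GST-TACC3 E629A dimer coactivator fragment; potency of inhibitors that break up the complex and lower AlphaScreen signal.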 Type of assay: functional, Homo sapiens. (Bead proximity is the source of the signal in Alpha formats.)
Assay [21] has as its target Adenosylmethionine-8-amino-7-oxononanoate aminotransferase (Mycobacterium tuberculosis, UniProt P9WQ81). The assay can be described thus: Mycobacterium tuberculosis BioA enzyme inhibitor Measured in Biochemical System Using Plate Reader - 2163-02_Inhibitor_Dose_CherryPick_Activity. Type of assay: functional, Mycobacterium tuberculosis UT205.
The target of assay [22] is T6, ATP-dependent translocase ABCB1 (Homo sapiens, UniProt P08183). The assay can be described thus: inhibition of BCRP-mediated JC-1 efflux – Ig-MXP3 cells, flow cytometry, set 2, dose response (AID 504566).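 Further: flow cytometry median green fluorescence of retained JC-1 dye; potency of efflux pump inhibition measured as rising substrate retention.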 Type of assay: functional. Particulars: read-out: EC50_MICROM_. (In general: In flow cytometry, cells or beads pass a laser one at a time.)
Assay [23] concerns the target T6, ATP-dependent translocase ABCB1. The assay can be described thus: P-gp JC-1 efflux blockade concentration-response – Jurkat-DNR cells, flow cytometry, set 2, dose response (AID 504569).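 Further: potency of pump inhibitors that raise cellular JC-1 green fluorescence up to the nicardipine level.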 Type of assay: functional. Particulars: read-out: EC50_MICROM_.
A further assay deals with HeLa. The assay can be described thus: viability loss in HeLa cells – cell-based, ATP luminescence, cherry-pick samples, cytotoxicity control, dose response (AID 687004). Type of assay: functional. Particulars: Homo sapiens.
Assay [24] can be described thus: blockers of HIV-1 ZM109 envelope-driven cell-cell fusion – HeLa effector, CEM target cells, luciferase, cherry-pick, dose response (AID 652058).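 Further: luciferase signal from HIV-1 Env mediated cell-cell fusion of effector and target cells.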 Type of assay: functional, cell-based.
A further assay concerns the target Protein Wnt-3a (Mus musculus, UniProt P27467). The assay can be described thus: SAR analysis of small molecule antagonists of Gli-SUFU in a Wnt3a luminescent reporter assay. Type of assay: functional.
Assay [25] can be described thus: inhibitors acting on PAX2 in cells – cell-based, plate reader, dry powder samples, selectivity assay for PAX8 inhibitor project, dose response (AID 743048).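 Further: HEK293 cells carrying a WT1 promoter luciferase reporter driven by expressed Pax2; potency is for inhibition of Pax2 driven reporter signal.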 Type of assay: functional.
Assay [26] is described as follows: COV362 cell viability loss – plate reader, dry powder, SA12, cytotoxicity control for PAX8 inhibitor project, dose response (AID 743144). Type of assay: functional, cell-based.
A short description of assay [27]: toxicity toward immortalized ovarian surface epithelium – cell-based, plate reader, dry powder samples, cytotoxicity control for PAX8 inhibitor project, dose response (AID 743045). Type of assay: functional.
A short description of assay [28]: OVCAR-3 cell viability loss – plate reader, dry powder samples, PAX8 inhibitor project, dose response (AID 743044). Type of assay: functional, cell-based.
Assay [29] is described as follows: PAX5 cellular inhibition readout – cell-based, plate reader, dry powder samples, selectivity assay for PAX8 inhibitor project, dose response (AID 743047).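 Further: HEK293 cells carrying a Pax5 driven CD19 promoter luciferase reporter; potency of inhibitors that lower reporter luminescence.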 Type of assay: functional.
Assay [30] in a line: IGROV1 cell killing – plate reader, dry powder samples, PAX8 inhibitor project, dose response (AID 743043). Type of assay: functional, cell-based. Particulars: IGROV-1.
Assay [31] is described as follows: OVCAR4 cell viability loss – plate reader, dry powder, SA11, cytotoxicity control for PAX8 inhibitor project, dose response (AID 743150). Type of assay: functional, cell-based. Particulars: OVCAR-4.
A short description of assay [32]: COV434 cell viability loss – plate reader, dry powder, SA7, cytotoxicity control for PAX8 inhibitor project, dose response (AID 743145). Type of assay: functional, cell-based.
Assay [33] can be described thus: OV-90 cell viability loss – plate reader, dry powder, SA8, PAX8 inhibitor project, dose response (AID 743149). Type of assay: functional, cell-based.
Assay [34] is described as follows: PAX8-dependent cell viability loss – plate reader, dry powder, dose response (AID 743049). Type of assay: functional, cell-based.
Assay [35] can be described thus: HEK293T viability loss – cell-based, ATP luminescence, dry powder, Set6, cytotoxicity control, dose response (AID 743142). Type of assay: functional. Particulars: HEK293.
Assay [36] can be described thus: viability loss in A549 lung cancer cells – cell-based, CellTiter-Glo luminescence, dry powder, set 3, cytotoxicity control, dose response (AID 743146). Type of assay: functional.

Activity calls are given as the source filed them.

Turning to `O=C(NNC(=S)NC1CCCCC1)c1ccccc1O`, the IC50 on Albumin was > 94.1 µM (inactive).

Broadly, the AC50 is the concentration giving half of the maximal activity seen. With `CN(C(=O)c1ccccc1Cl)C1CCCCC1`, in [1], the AC50 was 346 nM (active).

Take `Cc1cc(Cn2nc(-c3ccccc3)cc2C(=O)NCc2cccc(Br)c2)on1`: the IC50 is 5.75 µM (active) in assay [2], 83.3 µM (inactive) in assay [3] and 2.08 µM (active) in assay [4].

As to `CC(C)Oc1ccc(-c2nc(NCC3CCCO3)c3ccccc3n2)cc1` (configuration not stated), the CC50 in [5] is 29.2 µM (active). For the same compound, the values for the IC50 in assay [6] and in assay [7] were 24.2 µM (inactive) and 18.1 µM (active), respectively.

For the compound `CNC(=O)c1cc2cc(OC)ccc2oc1=O`, the IC50 in assay [8] is 2.13 µM (active).

For `O=C(O)CCC(=O)NNC(=O)COc1ccc2ccccc2c1Br`, the values for the IC50 on Major prion protein and in the assay “cells [9]” were 4.45 µM (active) and > 138 µM (inactive), respectively.

As for `Cc1ccc(C2(SCC(N)C(=O)O)c3ccccc3-c3ccccc32)cc1` (configuration not stated), the IC50 was 11 µM (active) in assay [10] and 32.5 µM (active) in assay [11].

Regarding `O=C1/C(=C\c2ccccc2)CN(C(=O)CCN2CCCCC2)C/C1=C/c1ccccc1`, the IC50 is 2.89 µM (active) in assay [12] and 84.9 µM (active) in assay [13].

As to `CC1C(c2ccccc2)OCCN1C(=S)Nc1ccc(S(=O)(=O)N2CCCCC2)cc1` (configuration not stated), the figures for the IC50 on Interleukin-8 [14] and at Interleukin-8 [15] were 4.48 µM (active) and 3.69 µM (active), respectively.

Regarding `CC(=O)OCC1OC(n2c(S)c(C#N)c(-c3ccccc3)c(C#N)c2=O)C(OC(C)=O)C(OC(C)=O)C1OC(C)=O` (configuration not stated), the IC50 on Galanin receptor type 3 is 503 nM (active). In the assay “cells [16]”, the EC50 is > 29.9 µM (inactive).

On to `CCOc1cccc(/C=N/NC(=O)c2cccnc2)c1O`, for which, on Nonstructural protein 1, the IC50 is 15.5 µM (active). Besides, in assay [17], the AC50 is 101 µM (active).

As to `C[C@@H]1CN([C@H](C)CO)C(=O)Cc2cc(NS(=O)(=O)c3ccc(Cl)cc3)ccc2O[C@@H]1CN(C)S(=O)(=O)c1ccc(Cl)cc1`, the AC50 in [18] was 39 µM (inactive); in assay [19], 3.39 µM (active).

In the case of `O=C(NC[C@H]1[C@H](c2ccccc2)[C@H](CO)N1Cc1ccccn1)C1CCC1`, in assay [20], the half-maximal activity concentration (AC50) is 129 µM (active).

For `C[C@@H]1CN([C@@H](C)CO)C(=O)c2cc(C#Cc3cccnc3)cnc2O[C@H]1CN(C)S(C)(=O)=O`, the AC50 in [21] was 6.02 µM (active).

As to `Cc1cccc(-c2cc3nc(-c4ccccc4)cc(N4CCN(C(=O)c5ccco5)CC4)n3n2)c1`, the results for the EC50 in assay [22] and in assay [23] were 3.22 µM (active) and 3.77 µM (active), respectively.

In the case of `COc1ccccc1C(=O)Nc1ccc2c(c1)OC[C@H](C)N(C(C)=O)C[C@H](C)[C@H](OC)CN(C)C2=O`, the half-maximal activity concentration (AC50) in the assay on HeLa was 44.9 µM (active); in [24], 33.4 µM (active).

`COc1cccc(C(=O)Nc2cc(N3CCCCC3)ncn2)c1`: the IC50 on Protein Wnt-3a is > 21.8 µM (inactive).

Consider `N#C[C@@H]1[C@@H](c2ccc(C#Cc3ccccc3F)cc2)[C@@H](CO)N1C(=O)C1CCCC1`, for which the concentration at half-maximal activity (AC50) in [25] is 16.5 µM (active); in assay [26], 48.5 µM (active); in [27], 27 µM (active); in assay [28] it was 29.7 µM (active); in [29], 18.1 µM (active); in [30], 47.3 µM (active). The concentration at half-maximal activity (AC50) in assay [31] is 44.3 µM (active); in assay [32] it was 10.9 µM (active); in assay [33] it was 35.3 µM (active); in assay [34] it was 11.9 µM (active).

As for `COc1ccc(C(=O)NCCC(=O)N[C@@H]2CCCc3ccccc32)cc1`, the figures for the AC50 in [35] and in assay [36] were 3.54 µM (active) and > 52 µM (inactive), respectively.
